Laboratory results published in ChEMBL document CHEMBL1157406, “Cytotoxic metabolites from the fungal endophyte Alternaria sp. and their subsequent detection in its host plant Polygonum senegalense” (J Nat Prod, 2008).

What follows are molecules tested on L5178Y (assay: Cytotoxicity against mouse L5178Y cells at 10 ug/ml by MTT assay).
Type: functional

Question: Which Activity does the source give for `COc1cc(O)c2c(=O)oc3cc(OS(=O)(=O)O)cc(C)c3c2c1` here?
Answer: Its Activity is 89%.

Question: `Cc1cc(=O)c2c(C)cc(O)cc2o1` was tested. Which Activity did it give?
Answer: The Activity was 95%.

Question: How did the Activity turn out when `CC[C@H](C)[C@@H]1NC(=O)C(C(C)=O)=C1O` [TENUAZONIC ACID] was run?
Answer: The Activity was 57.9%.
